Results taken from patent publication US20150164762A1, “USE OF ETHANOLAMINE PHOSPHATE” (priority 2012, published 2015).

Tested on: BEAS-2B
Assay: Comprehensive gene expression analysis with Whole Human Genome DNA microarray after EP treatment
Type: cell-based
Protocol: Cells of the established normal human airway epithelial cell line BEAS-2B were used in the experiment. These cells were expansively cultured in 10% FBS RPMI-1640, and seeded at a density of 1×10^5/cm^2 on a 24-well plate. After 24 hours 0.1% FBS RPMI-1640 was substituted, and EP was administered to a final concentration of 0 or 1 mM (n=4). After 24 hours, the cells were used as the DNA microarray samples. RNA was extracted using a QIAGEN RNeasy Mini Kit. The DNA microarray test was performed using a Whole Human Genome DNA microarray 4×44K (Agilent), and the necessary labeling reagents and the like for the DNA microarray test were all from Agilent. The DNA microarray test data were analyzed statistically with GeneSpring (Agilent) dedicated analysis software, and gene function analysis (Gene Ontology (GO) analysis) was performed based on differential expression. The purpose of the GO analysis is to determine stochastically the degree to which gene sets with statistically significant differential expression correspond to known functional classification gene sets. […] The p-value is calculated according to the following formula.

NCCOP(=O)(O)O [EP, Ethanolamine phosphate]
R*: Ratio to control (CEBPB, probe A_23_P143242): 0.617 times | log2 [ratio] (CEBPB, probe A_23_P143242): −0.697 | R*: Ratio to control (CEBPB, probe A_23_P411296): 0.383 times | log2 [ratio] (CEBPB, probe A_23_P411296): −1.385 | R*: Ratio to control (CIDEC, probe A_23_P92025): 0.593 times | log2 [ratio] (CIDEC, probe A_23_P92025): −0.754 | R*: Ratio to control (CKLF, probe A_23_P118061): 1.501 times | log2 [ratio] (CKLF, probe A_23_P118061): 0.586 | R*: Ratio to control (CKLF, probe A_23_P206396): 1.601 times | log2 [ratio] (CKLF, probe A_23_P206396): 0.679 | R*: Ratio to control (CKLF, probe A_24_P215804): 1.551 times | log2 [ratio] (CKLF, probe A_24_P215804): 0.633 | R*: Ratio to control (CKS2, probe A_23_P71727): 1.510 times | log2 [ratio] (CKS2, probe A_23_P71727): 0.595 | R*: Ratio to control (COL8A1, probe A_23_P69030): 1.999 times | log2 [ratio] (COL8A1, probe A_23_P69030): 0.999 | R*: Ratio to control (COL8A1, probe A_23_P211762): 1.643 times | log2 [ratio] (COL8A1, probe A_23_P211762): 0.716 | R*: Ratio to control (COL8A1, probe A_24_P139152): 1.703 times | log2 [ratio] (COL8A1, probe A_24_P139152): 0.768 | R*: Ratio to control (DDIT3, probe A_23_P21134): 0.210 times | log2 [ratio] (DDIT3, probe A_23_P21134): −2.249 | R*: Ratio to control (FGF9, probe A_23_P105803): 1.606 times | log2 [ratio] (FGF9, probe A_23_P105803): 0.684 | R*: Ratio to control (GLI2, probe A_23_P500034): 2.060 times | log2 [ratio] (GLI2, probe A_23_P500034): 1.043 | R*: Ratio to control (HAND2, probe A_23_P373521): 1.971 times | log2 [ratio] (HAND2, probe A_23_P373521): 0.979 | R*: Ratio to control (IFI16, probe A_23_P217866): 0.585 times | log2 [ratio] (IFI16, probe A_23_P217866): −0.773 | R*: Ratio to control (IFNG, probe A_23_P151294): 0.611 times | log2 [ratio] (IFNG, probe A_23_P151294): −0.710 | R*: Ratio to control (IKBIP, probe A_23_P53467): 0.626 times | log2 [ratio] (IKBIP, probe A_23_P53467): −0.675 | R*: Ratio to control (IKBIP, probe A_23_P303210): 0.468 times | log2 [ratio] (IKBIP, probe A_23_P303210): −1.095 | R*: Ratio to control (IL1A, probe A_23_P72096): 0.216 times | log2 [ratio] (IL1A, probe A_23_P72096): −2.211 | R*: Ratio to control (KNG1, probe A_32_P230808): 0.358 times | log2 [ratio] (KNG1, probe A_32_P230808): −1.484 | R*: Ratio to control (LEPR, probe A_24_P231104): 1.659 times | log2 [ratio] (LEPR, probe A_24_P231104): 0.730 | R*: Ratio to control (LOX, probe A_23_P122216): 1.637 times | log2 [ratio] (LOX, probe A_23_P122216): 0.711 | R*: Ratio to control (MAP3K10, probe A_24_P284523): 0.570 times | log2 [ratio] (MAP3K10, probe A_24_P284523): −0.810 | R*: Ratio to control (MAPRE2, probe A_23_P89835): 1.538 times | log2 [ratio] (MAPRE2, probe A_23_P89835): 0.621 | R*: Ratio to control (MAPRE2, probe A_24_P193911): 1.666 times | log2 [ratio] (MAPRE2, probe A_24_P193911): 0.736 | R*: Ratio to control (MMP2, probe A_23_P163787): 1.578 times | log2 [ratio] (MMP2, probe A_23_P163787): 0.658 | R*: Ratio to control (MVC, probe A_24_P38363): 1.686 times | log2 [ratio] (MVC, probe A_24_P38363): 0.754 | R*: Ratio to control (NLRP1, probe A_23_P89550): 0.483 times | log2 [ratio] (NLRP1, probe A_23_P89550): −1.048 | R*: Ratio to control (NLRP1, probe A_24_P83615): 0.558 times | log2 [ratio] (NLRP1, probe A_24_P83615): −0.841 | R*: Ratio to control (NR2F2, probe A_23_P88589): 1.662 times | log2 [ratio] (NR2F2, probe A_23_P88589): 0.733 | R*: Ratio to control (NR2F2, probe A_24_P313354): 1.746 times | log2 [ratio] (NR2F2, probe A_24_P313354): 0.804 | R*: Ratio to control (NR4A1, probe A_23_P128230): 0.302 times | log2 [ratio] (NR4A1, probe A_23_P128230): −1.727 | R*: Ratio to control (NRP1, probe A_24_P135322): 1.664 times | log2 [ratio] (NRP1, probe A_24_P135322): 0.735 | R*: Ratio to control (NRP1, probe A_24_P928052): 1.990 times | log2 [ratio] (NRP1, probe A_24_P928052): 0.993 | R*: Ratio to control (NTF3, probe A_23_P360797): 0.492 times | log2 [ratio] (NTF3, probe A_23_P360797): −1.024 | R*: Ratio to control (NTRK1, probe A_23_P34804): 0.261 times | log2 [ratio] (NTRK1, probe A_23_P34804): −1.936 | R*: Ratio to control (OBSCN, probe A_24_P273157): 0.654 times | log2 [ratio] (OBSCN, probe A_24_P273157): −0.613
